Test results as given in patent publication US9440964B2, “Pesticidal compositions and processes related thereto” (Dow AgroSciences LLC, priority 2011, dated 2016).
Read-outs that look alike come from different tables or passages of the source.

Legend:
Format in all cases: in vivo
BAW (Spodoptera exigua) = assay: Bioassay on Beet Armyworm (BAW), 128-well diet tray; settings: Spodoptera exigua, 168 h, read-out: Rating BAW
Method in brief: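 Second-instar Spodoptera exigua larvae (one to five per well) placed on artificial diet surface-treated with 50 μg/cm^2 compound in 90:10 acetone-water, dried, eight wells per compound. Held 5–7 days at 25 °C, 14:10 light-dark; percent mortality averaged across wells.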

CEW (Helicoverpa zea) = assay: Bioassay on Corn Earworm (CEW), 128-well diet tray; settings: Helicoverpa zea, 168 h; for pest or weed control at 0.5 µg/cm2: 0.5 μg/cm^2 on diet, read-out: Rating CEW (*Tested at 0.5 μg/cm^2); for pest or weed control at 50 µg/cm2: read-out: Rating CEW
Method in brief: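 Helicoverpa zea (corn earworm) was tested in a 128-well diet tray. Each 3 mL well received one to five second instar larvae on diet treated with the test material in an acetone-water mixture, applied to eight wells and dried. Trays were sealed with clear self-adhesive covers, kept at 25° C., 14:10 light-dark for five to seven days, then percent mortality was averaged across eight wells.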

[1] = tested on: Yellow Fever Mosquito YFM (Aedes aegypti); assay: Bioassay on Yellow Fever Mosquito (YFM) larvae, 96-well plate; settings: mortality of about 1 day-old larvae, scored after 3 days
Protocol: Certain molecules disclosed in this document were tested against YFM using procedures described in the following paragraph. In the reporting of the results, the “YFM Rating Table” was used (See Table Section).
Master plates containing 400 μg of a molecule dissolved in 100 μL of dimethyl sulfoxide (DMSO) (equivalent to a 4000 ppm solution) are used. A master plate of assembled molecules contains 15 μL per well. To this plate, 135 μL of a 90:10 water:acetone mixture is added to each well. A robot (Biomek® NXP Laboratory Automation Workstation) is programmed to dispense 15 μL aspirations from the master plate into an empty 96-well shallow plate (“daughter” plate). There are 6 reps (“daughter” plates) created per master. The created daughter plates are then immediately infested with YFM larvae.
The day before plates are to be treated, mosquito eggs are placed in Millipore water containing liver powder to begin hatching (4 g. into 400 ml). After the daughter plates are created using the robot, they are infested with 220 μL of the liver powder/larval mosquito mixture (about 1 day-old larvae). After plates are infested with mosquito larvae, a non-evaporative lid is used to cover the plate to reduce drying. Plates are held at room temperature for 3 days prior to grading. After 3 days, each well is observed and scored based on mortality.
(§1) The results are indicated in the table entitled “Table ABC: Biological Results” (See Table Section).

[2] = tested on: Green Peach Aphid (GPA) (Myzus persica); assay: Bioassay on Green Peach Aphid (GPA), cabbage seedling foliar spray; settings: 72 h, read-out: Rating GPA
Protocol: Certain molecules disclosed in this document were tested against GPA using procedures described in the following example. In the reporting of the results, the “GPA Rating Table” was used (See Table Section).
Cabbage seedlings grown in 3-inch pots, with 2-3 small (3-5 cm) true leaves, were used as test substrate. The seedlings were infested with 20-50 GPA (wingless adult and nymph stages) one day prior to chemical application. Four pots with individual seedlings were used for each treatment. Test compounds (2 mg) were dissolved in 2 mL of acetone/MeOH (1:1) solvent, forming stock solutions of 1000 ppm test compound. The stock solutions were diluted 5× with 0.025% Tween 20 in H2O to obtain the solution at 200 ppm test compound. A hand-held aspirator-type sprayer was used for spraying a solution to both sides of […] leaves until runoff. Reference plants (solvent check) were sprayed with the diluent only containing 20% by volume of acetone/MeOH (1:1) solvent. Treated plants were held in a holding room for three days at approximately 25° C. and ambient relative humidity (RH) prior to grading. Evaluation was conducted by counting the number of live aphids per plant under a microscope. Percent Control was measured by using Abbott's correction formula (W. S. Abbott, “A Method of Computing the Effectiveness of an Insecticide” J. Econ. Entomol. 18 (1925), pp. 265-267) as follows. Corrected % Control=100*(X−Y)/X • where • X=No. of live aphids on solvent check plants and • Y=No. of live aphids on treated plants
as §1

[3] = percent mortality, second instar larvae, 50 μg/cm^2 on diet, five to seven days
[4] = percent mortality, second instar larvae, five to seven days
[5] = corrected % control (Abbott), 200 ppm foliar spray on cabbage, three days

SMILES	pest or weed control at 50 µg/cm2 (BAW (Spodoptera exigua); [3]) [%]	pest or weed control at 0.5 µg/cm2 (CEW (Helicoverpa zea); [4]) [%]	Rating YFM [1]	pest or weed control at 50 µg/cm2 (CEW (Helicoverpa zea); [3]) [%]	pest or weed control at 200 ppm ([2]; foliar) [%]	pest or weed control at 50 µg/cm2 (BAW (Spodoptera exigua)) [%]	pest or weed control at 50 µg/cm2 (CEW (Helicoverpa zea)) [%]	pest or weed control at 200 ppm [2, 5] [%]
COc1ccc(N2C(=O)CS/C2=N\C(=O)Nc2ccc(-c3ncn(-c4ccc(OC(F)(F)F)cc4)n3)cc2)c(C)c1 [Molecule A110]	50 to 100	50 to 100	A (80-100)	–	–	–	–	–
Cc1cc(-c2ncn(-c3ccc(OC(F)(F)F)cc3)n2)ccc1NC(=O)/N=C1\SCC(=O)N1c1ccccc1C(C)C [Molecule A123, (Z)-1-(3-(2-isopropylphenyl)-4-oxothiazolidin-2-ylidene)-3-(2-methyl-4-(1-(4-(trifluoromethoxy)phenyl)-1H-1,2,4-triazol-3-yl)phenyl)urea]	50 to 100	50 to 100	A (80-100)	–	–	–	–	–
CCc1ccccc1N1C(=O)CS/C1=N\C(=O)Nc1ccc(-c2ncn(-c3ccc(OC(F)(F)F)cc3)n2)cc1 [Molecule A35]	50 to 100	–	A (80-100)	50 to 100	–	–	–	–
COc1ccc(N/C(O)=C/C(=O)Nc2ccc(-c3ncn(-c4ccc(OC(F)(F)F)cc4)n3)cc2)c(C(C)C)c1 [Molecule A34, (Z)-3-hydroxy-3-(2-isopropyl-4-methoxyphenylamino)-N-(4-(1-(4-(trifluoromethoxy)phenyl)-1H-1,2,4-triazol-3-yl)phenyl)acrylamide]	50 to 100	–	A (80-100)	50 to 100	–	–	–	–
COc1cc(C)c(N/C(=N/C(=O)Nc2ccc(-c3ncn(-c4ccc(C(F)(F)F)cc4)n3)cc2)SCOC(=O)CNC(=O)OCc2ccccc2)c(C)c1 [Molecule A9, (E)-((N′-(4-Methoxy-2,6-dimethylphenyl)-N-((4-(1-(4-(trifluoromethyl)phenyl)-1H-1,2,4-triazol-3-yl)phenyl)carbamoyl)carbamimidoyl)thio)methyl 2-(((benzyloxy)carbonyl)amino)acetate]	–	–	–	–	0 to 80	50 to 100	50 to 100	–
Cc1ccc(N2C(=O)CS/C2=N\C(=O)Nc2ccc(-c3ncn(-c4ccc(OC(F)(F)F)cc4)n3)cc2)c(Cl)c1 [Molecule A77]	50 to 100	50 to 100	B (More than 0-Less than 80)	–	–	–	–	–
Cc1cccc(C)c1N/C(S)=N/C(=O)Nc1ccc(-c2ncn(-c3ccc(OC(F)(F)F)cc3)n2)cc1 [Molecule A11]	50 to 100	–	–	50 to 100	–	–	–	0 to 80
Cc1cccc(C)c1N1C(=O)CS/C1=N\C(=O)Nc1ccc(-c2ncn(-c3ccc(OC(F)(F)F)cc3)n2)cc1 [Molecule A14, (Z)-1-(3-(2,6-dimethylphenyl)-4-oxothiazolidin-2-ylidene)-3-(4-(1-(4-(trifluoromethoxy)phenyl)-1H-1,2,4-triazol-3-yl)phenyl)urea]	50 to 100	–	A (80-100)	50 to 100	–	–	–	0 to 80
Cc1ccccc1N1C(=O)CS/C1=N\C(=O)Nc1ccc(-c2ncn(-c3ccc(OC(F)(F)F)cc3)n2)cc1 [Molecule A65]	50 to 100	50 to 100	A (80-100)	–	–	–	–	–
Cc1ccccc1N/C(S)=N/C(=O)Nc1ccc(-c2ncn(-c3ccc(OC(F)(F)F)cc3)n2)cc1 [Molecule A80]	50 to 100	–	B (More than 0-Less than 80)	50 to 100	–	–	–	–
CCCc1ccccc1N1C(=O)CS/C1=N\C(=O)Nc1ccc(-c2ncn(-c3ccc(OC(F)(F)F)cc3)n2)cc1 [Molecule A69]	50 to 100	50 to 100	A (80-100)	–	–	–	–	–
COc1ccc(N/C(=N\C(=O)Nc2ccc(-c3ncn(-c4ccc(OC(F)(F)F)cc4)n3)cc2)SCOC(=O)C(C)C)cc1 [Molecule A62]	50 to 100	–	A (80-100)	50 to 100	–	–	–	–
CCC(C)c1ccccc1N1C(=O)CS/C1=N\C(=O)Nc1ccc(-c2ncn(-c3ccc(OC(F)(F)F)cc3)n2)cc1 (stereo not drawn) [Molecule A18, (Z)-1-(3-(2-(sec-butyl)phenyl)-4-oxothiazolidin-2-ylidene)-3-(4-(1-(4-(trifluoromethoxy)phenyl)-1H-1,2,4-triazol-3-yl)phenyl)urea]	50 to 100	–	A (80-100)	50 to 100	–	–	–	–
Cc1cccc(C)c1N/C(=N/C(=O)Nc1ccc(-c2ncn(-c3ccc(C(F)(F)F)cc3)n2)cc1)SCOC(=O)C(C)C [Molecule A3, (E)-(N′-(2,6-Dimethylphenyl)-N-(4-(1-(4-(trifluoromethyl)phenyl)-1H-1,2,4-triazol-3-yl)phenylcarbamoyl)carbamimidoylthio) methyl isobutyrate]	50 to 100	–	A (80-100)	50 to 100	–	–	–	–
Cc1cc(-c2ncn(-c3ccc(OC(F)(F)F)cc3)n2)ccc1NC(=O)/N=C(\S)Nc1ccccc1C(C)C [Molecule A122, N-[[(2-isopropyllphenyl)amino]thioxomethyl]-N′-(2-methyl(4-(1-(4-(trifluoromethoxy)phenyl)-1H-1,2,4-triazol-3-yl)phenyl))urea]	50 to 100	50 to 100	A (80-100)	–	–	–	–	–
COc1cc(C)c(N/C(=N/C(=O)Nc2ccc(-c3ncn(-c4ccc(OC(F)(F)F)cc4)n3)cc2)SCOC(=O)C(C)C)c(C)c1 [Molecule A7, (E)-(N′-(2,6-Dimethyl-4-methoxyphenyl)-N-(4-(1-(4-(trifluoromethyoxy)phenyl)-1H-1,2,4-triazol-3-yl)phenylcarbamoyl)carbamimidoylthio)methyl isobutyrate]	50 to 100	–	–	50 to 100	–	–	–	0 to 80
CC(C)c1cccc(Cl)c1N1C(=O)CS/C1=N\C(=O)Nc1ccc(-c2ncn(-c3ccc(OC(F)(F)F)cc3)n2)cc1 [Molecule A85]	50 to 100	50 to 100	A (80-100)	–	–	–	–	–
COc1cc(C)c(N2C(=O)CS/C2=N\C(=O)Nc2ccc(-c3ncn(-c4ccc(OC(F)(F)F)cc4)n3)cc2)c(C)c1 [Molecule A44]	50 to 100	–	A (80-100)	50 to 100	–	–	–	0 to 80
Cc1cccc(C)c1N/C(=N/C(=O)Nc1ccc(-c2ncn(-c3ccc(OC(F)(F)F)cc3)n2)cc1)SCOC(=O)C(C)C [Molecule A4, (E)-(N′-(2,6-Dimethylphenyl)-N-(4-(1-(4-(trifluoromethyoxy)phenyl)-1H-1,2,4-triazol-3-yl)phenylcarbamoyl)carbamimidoylthio)methyl isobutyrate]	50 to 100	–	A (80-100)	50 to 100	–	–	–	0 to 80
COc1ccc(N/C(O)=C/C(=O)Nc2ccc(-c3ncn(-c4ccc(OC(F)(F)F)cc4)n3)cc2)c(C)c1 [Molecule A33, (Z)-3-hydroxy-3-(4-methoxy-2-methylphenylamino)-N-(4-(1-(4-(trifluoromethoxy)phenyl)-1H-1,2,4-triazol-3-yl)phenyl)acrylamide]	50 to 100	–	–	50 to 100	–	–	–	0 to 80
